Assay results reported in patent US20170296611A1, “Pharmaceutical Compositions Comprising Extracts of Sarcopoterium Spinosum, Components Thereof, and Uses Thereof” (Diabest Botanical Drugs Ltd., priority 2009, published 2017).

Assays:
Type in all cases: cell-based
3T3-L1 adipocytes = test: Free fatty acid release (lipolysis) assay in 3T3-L1 adipocytes
Protocol: 3T3-L1 pre-adipocytes were cultured and differentiated as described in references 8 as well as 16, 19, 20 and 21. Briefly, cells were grown to confluence in Dulbecco's Modified Eagle's Medium (DMEM) containing 10% fetal calf serum (FCS), 2 mM glutamine and 1% ampicillin. Two days after full confluence, the cells were induced to differentiate by 3 days incubation in DMEM containing 10% FCS, 0.5 mM isobutylmethylxanthine (IBMX), 1 μM dexamethasone and 100 nM insulin. This was followed by 2 days of incubation in DMEM containing 10% FCS and 100 nM insulin. The cells were grown for an additional 5-9 days in DMEM containing 10% FCS. […] Differentiated adipocytes were preincubated for 12 hours in DMEM containing 2% fatty acid-free bovine serum albumin, in the absence of FCS. Lipolysis was stimulated by treating cells with 10 μM isoproterenol for 1 hour, in the absence or presence of insulin (100 nM) or a composition (S. spinosum extract diluted to 0.001-1% V/V). Free fatty acids (FFA) released into the culture media were measured immediately using a NEFA-C kit, according to the kit instructions. Lipolysis was induced using the adrenergic agonist isoproterenol in order to analyze the extract's effect on lipolysis, and the effect of compositions comprising S. spinosum extract on isoproterenol-induced lipolysis measured, with insulin as a positive control. Differentiated adipocytes (3T3-L1) were treated with insulin (100 nM) or a composition comprising 1% (V/V) S. spinosum extract with or without the addition of isoproterenol (10 μM) for 60 min. Free fatty acid (FFA) concentration was measured […].

[1] = system: GSK3β ser-9 phosphorylation; test: GSK3β phosphorylation in L6 myotubes (Western blot / ELISA); conditions: insulin 100 nM, 20 min
Protocol: L6 myoblasts were grown in MEM-α containing 25 mM glucose, 10% FCS, 2 mM glutamine and 1% ampicillin. Experiments were performed on differentiated myotubes. In order to induce differentiation, myoblasts were incubated in MEM-α containing 25 mM glucose and 2% FCS for 4 days, followed by an additional 24 h incubation in a MEM-α starvation medium containing 5 mM glucose and 2% FCS. AML-12, a nontransformed hepatocyte cell line were maintained in DMEM containing 25 mM glucose, 10% FCS, 2 mM glutamine and 1% ampicillin. […] Protein lysates were prepared using cell extraction buffer supplemented with protease and phosphatase inhibitors. The samples were homogenized and centrifuged at 14,000 rpm for 20 min. The supernatant was collected and protein concentration was measured using the Bradford method. 20 μg protein per lane was separated by SDS-polyacrylamide gel electrophoresis. Proteins were electrophoretically transferred onto nitrocellulose membranes. The membranes were blocked in 10% dry milk, incubated with the appropriate antibodies and immunodetected using the enhanced chemiluminescence method. Differentiated L6 myotubes were treated with 100 nM insulin or composition (S. spinosum extract diluted to 0.1% V/V) for 20 min. Protein lysates were prepared using cell extraction buffer. […] GSK-3β phosphorylation was measured using the ELISA detection kit. […]

[2] = system: differentiated 3T3-L1 adipocytes; test: [3H]2-deoxy-D-glucose uptake in 3T3-L1 adipocytes; conditions: insulin 100 nM
Protocol: 3T3-L1 pre-adipocytes were cultured and differentiated as described in references 8 as well as 16, 19, 20 and 21. Briefly, cells were grown to confluence in Dulbecco's Modified Eagle's Medium (DMEM) containing 10% fetal calf serum (FCS), 2 mM glutamine and 1% ampicillin. Two days after full confluence, the cells were induced to differentiate by 3 days incubation in DMEM containing 10% FCS, 0.5 mM isobutylmethylxanthine (IBMX), 1 μM dexamethasone and 100 nM insulin. This was followed by 2 days of incubation in DMEM containing 10% FCS and 100 nM insulin. The cells were grown for an additional 5-9 days in DMEM containing 10% FCS. […] Glucose uptake was measured in triplicate samples in six-well plates using [^3H]2-deoxy-D-glucose (1 mCi/ml; American Radiolabeled Chemicals, St. Louis, Mo., USA). […] Samples were counted in the ^3H window of a Tricarb scintillation counter. […] The effect of S. spinosum compositions on glucose uptake was measured in the AML12 hepatocyte cell line, L6 skeletal myoblasts and in differentiated 3T3-L1 adipocytes, and compared to the effect of insulin. […] The uptake of [^3H]2-deoxy-D-glucose into cells was determined as described in the Materials and Methods section.

[3] = system: AML12 hepatocyte cell line; test: [3H]2-deoxy-D-glucose uptake in hepatocytes; conditions: insulin 100 nM
Protocol: (§1) L6 myoblasts were grown in MEM-α containing 25 mM glucose, 10% FCS, 2 mM glutamine and 1% ampicillin. Experiments were performed on differentiated myotubes. In order to induce differentiation, myoblasts were incubated in MEM-α containing 25 mM glucose and 2% FCS for 4 days, followed by an additional 24 h incubation in a MEM-α starvation medium containing 5 mM glucose and 2% FCS. AML-12, a nontransformed hepatocyte cell line were maintained in DMEM containing 25 mM glucose, 10% FCS, 2 mM glutamine and 1% ampicillin. Differentiated adipocytes, L6 myoblasts and AML12 cells were each preincubated for 6 hours in low glucose (4.5 mM), serum-free DMEM containing 1% BSA, and then treated with either 100 nM insulin or compositions comprising different concentrations of S. spinosum extract (0.001-1% V/V). Glucose uptake was measured in triplicate samples in six-well plates using [^3H]2-deoxy-D-glucose (1 mCi/ml; American Radiolabeled Chemicals, St. Louis, Mo., USA). […] Samples were counted in the ^3H window of a Tricarb scintillation counter. […] The effect of S. spinosum compositions on glucose uptake was measured in the AML12 hepatocyte cell line, L6 skeletal myoblasts and in differentiated 3T3-L1 adipocytes, and compared to the effect of insulin. […] The uptake of [^3H]2-deoxy-D-glucose into cells was determined as described in the Materials and Methods section.

L6 myoblasts = test: [3H]2-deoxy-D-glucose uptake in L6 myoblasts; conditions: insulin 100 nM
Protocol: as §1

Compound | free fatty acid release (lipolysis) (3T3-L1 adipocytes; isoproterenol 10 μM for one hour alone) [mM FFA/mg protein] | isoproterenol-induced free fatty acid release (3T3-L1 adipocytes; isoproterenol 10 μM, 60 min, insulin 100 nM) [mM FFA/mg protein] | free fatty acid release (3T3-L1 adipocytes; unstimulated adipocytes (no isoproterenol)) | increase in GSK3β ser-9 phosphorylation compared to the control [1] [fold] | increase in glucose uptake [2] [%] | increase in glucose uptake [3] [%] | increase in glucose uptake (L6 myoblasts) [%]
CC(C)NCC(O)c1ccc(O)c(O)c1 (stereo not shown) [isoproterenol, Isoproterenol, reference compound] | 4.23±3.01 |  |  |  |  |  | 
insulin |  | 0.47±0.16 | not affected | 4 | 167±13 | 160±12 | 146±11.26
